Where two headings read alike, the source gives them in different places.
How the values were obtained:
[1] = target: T1, beta-catenin/TCF4 engagement (Homo sapiens, UniProt P35222); assay: Nano-BRET target engagement assay (B-cat-Halo & TCF4-Luc in HEK293 cells); format: cell-based
T1 construct: expressed in transfected cells; host or cells: HEK293
T1 sequence (P35222 1-781): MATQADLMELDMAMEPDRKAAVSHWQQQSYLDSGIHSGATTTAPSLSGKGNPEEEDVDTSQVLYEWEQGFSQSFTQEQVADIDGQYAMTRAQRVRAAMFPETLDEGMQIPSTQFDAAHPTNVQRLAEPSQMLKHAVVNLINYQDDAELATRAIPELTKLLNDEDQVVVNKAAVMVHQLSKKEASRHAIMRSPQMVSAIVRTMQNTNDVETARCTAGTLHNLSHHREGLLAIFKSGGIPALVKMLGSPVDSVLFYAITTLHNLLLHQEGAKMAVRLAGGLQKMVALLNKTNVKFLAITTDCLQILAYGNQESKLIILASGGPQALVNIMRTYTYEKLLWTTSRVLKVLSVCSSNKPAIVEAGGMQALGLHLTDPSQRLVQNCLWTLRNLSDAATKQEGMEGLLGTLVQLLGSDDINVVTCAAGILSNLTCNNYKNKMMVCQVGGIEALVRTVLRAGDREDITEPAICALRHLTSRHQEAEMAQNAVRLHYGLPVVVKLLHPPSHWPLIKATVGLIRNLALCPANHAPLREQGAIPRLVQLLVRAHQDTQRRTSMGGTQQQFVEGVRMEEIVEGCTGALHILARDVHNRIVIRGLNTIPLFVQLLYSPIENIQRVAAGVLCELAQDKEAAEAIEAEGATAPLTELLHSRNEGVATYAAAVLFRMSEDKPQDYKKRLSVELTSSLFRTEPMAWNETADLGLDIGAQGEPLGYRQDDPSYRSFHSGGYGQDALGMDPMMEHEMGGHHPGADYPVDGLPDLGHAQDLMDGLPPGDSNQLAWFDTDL

[2] = target: T2, full-length beta-Catenin (Uniprot ID P35222) (Homo sapiens, UniProt P35222); assay: Fluorescence polarization IC50 (beta-catenin / 5FAM-TCF4 10-53 competition); format: binding
T2 construct: 10 nM full-length beta-Catenin (Uniprot ID P35222)
T2 sequence (P35222 1-781): T1 sequence (P35222 1-781)

[3] = absolute IC50, read-out: NanoBRET Abs IC50
[4] = fluorescence polarization, read-out: beta-Catenin FP IC50
[5] = NanoBRET Abs IC50, absolute IC50
[6] = beta-Catenin FP IC50, fluorescence polarization
[7] = fluorescence polarization, beta-catenin, read-out: FP EC50

SMILES | IC50 [1, 3] | IC50 [2, 4] | IC50 [2, 7] | IC50 [1, 5] | IC50 [2, 6]
CC(=O)N1CCC[C@]12CC=CCCCC1(CCCC=CCCCOC(=O)N3CC[C@@](C(=O)N[C@@H](Cc4ccsc4)C(=O)N[C@@H](Cc4csc5ccccc45)C(=O)N[C@@H](CC(C)C)C(N)=O)(C3)NC(=O)[C@H](CC(C)C)NC(=O)[C@H](Cc3ccccc3)NC(=O)[C@H](C)NC(=O)[C@H](C)NC(=O)[C@H](CC(=O)O)NC(=O)[C@H](CC(=O)O)NC1=O)NC(=O)[C@H](CC(C)(C)C)NC(=O)[C@H](CC(=O)O)NC2=O (stereo partly drawn) [I-1409, Ac-PL3-Asp-Npg-B5-Asp-Asp-Ala-Ala-Phe-Leu-PyrS2-3Thi-BztA-Leu-NH2] | 24000 nM | 74 nM | – | – | –
CC(=O)N1CCC[C@]12CC=CCCCC1(CCCC=CCCCOC(=O)N3CC[C@@](C(=O)N[C@@H](Cc4ccsc4)C(=O)N[C@@H](Cc4csc5ccccc45)C(=O)N[C@@H](CC(C)C)C(N)=O)(C3)NC(=O)[C@H](CC(C)C)NC(=O)[C@H](Cc3ccccc3)NC(=O)[C@H](C)NC(=O)[C@H](C)NC(=O)[C@H](CC(=O)O)NC(=O)[C@H](CC(=O)O)NC1=O)NC(=O)[C@H](CC(C)C)NC(=O)[C@H](CC(=O)O)NC2=O (stereo partly drawn) [I-1410, Ac-PL3-Asp-Leu-B5-Asp-Asp-Ala-Ala-Phe-Leu-PyrS2-3Thi-BztA-Leu-NH2] | – | – | – | 29300 nM | 80 nM
CC(=O)N1CCC[C@]12CC=CCCCC1(CCCC=CCCCOC(=O)N3CC[C@@](C(=O)N[C@@H](Cc4ccsc4)C(=O)N[C@@H](Cc4csc5ccccc45)C(=O)N[C@@H](CC(C)C)C(N)=O)(C3)NC(=O)[C@H](CC(C)C)NC(=O)[C@H](Cc3ccccc3)NC(=O)[C@H](C)NC(=O)[C@H](C)NC(=O)[C@H](CC(=O)O)NC(=O)[C@H](CC(=O)O)NC1=O)NC(=O)[C@H](CO)NC(=O)[C@H](CC(=O)O)NC2=O (stereo partly drawn) [I-1414, Ac-PL3-Asp-Ser-B5-Asp-Asp-Ala-Ala-Phe-Leu-PyrS2-3Thi-BztA-Leu-NH2] | – | – | – | > 20000 nM | 84 nM
CC(=O)N1CCC[C@]12CC=CCCCC1(CCCC=CCCCOC(=O)N3CC[C@@](C(=O)N[C@@H](Cc4ccccc4Cl)C(=O)N[C@@H](Cc4csc5ccccc45)C(=O)N[C@@H](CC(C)C)C(N)=O)(C3)NC(=O)[C@H](CC(C)C)NC(=O)[C@H](Cc3ccccc3)NC(=O)[C@H](C)NC(=O)[C@H](C)NC(=O)[C@H](CC(=O)O)NC(=O)[C@H](CC(=O)O)NC1=O)NC(=O)[C@H](CC(C)C)NC(=O)[C@H](CC(=O)O)NC2=O (stereo partly drawn) [I-1418, Ac-PL3-Asp-Leu-B5-Asp-Asp-Ala-Ala-Phe-Leu-PyrS2-2C1F-BztA-Leu-NH2] | > 20000 nM | 106 nM | 106 nM | – | –
CC(=O)N1CCC[C@]12CC=CCCCC1(CCCC=CCCCOC(=O)N3CC[C@@](C(=O)N[C@@H](Cc4ccsc4)C(=O)N[C@@H](Cc4c[nH]c5ccccc45)C(=O)N[C@@H](CCC(N)=O)C(N)=O)(C3)NC(=O)[C@H](CC(C)C)NC(=O)[C@H](Cc3ccccc3)NC(=O)[C@H](C)NC(=O)[C@H](C)NC(=O)[C@H](CC(=O)O)NC(=O)[C@H](CC(=O)O)NC1=O)NC(=O)[C@H](CC(C)(C)C)NC(=O)[C@H](CC(=O)O)NC2=O (stereo partly drawn) [I-1431, Ac-PL3-Asp-Npg-B5-Asp-Asp-Ala-Ala-Phe-Leu-PyrS2-3Thi-Trp-Gln-NH2] | 14600 nM | 44 nM | 34 nM | – | –
CC(=O)N1CCC[C@]12CC=CCCCC1(CCCC=CCCCOC(=O)N3CC[C@@](C(=O)N[C@@H](Cc4ccsc4)C(=O)N[C@@H](Cc4csc5ccccc45)C(=O)N[C@@H](CCC(N)=O)C(N)=O)(C3)NC(=O)[C@H](CC(C)C)NC(=O)[C@H](Cc3ccccc3)NC(=O)[C@H](C)NC(=O)[C@H](C)NC(=O)[C@H](CCC(=O)O)NC(=O)[C@H](CC(=O)O)NC1=O)NC(=O)[C@H](CC(C)(C)C)NC(=O)[C@H](CC(=O)O)NC2=O (stereo partly drawn) [I-1437, Ac-PL3-Asp-Npg-B5-Asp-Glu-Ala-Ala-Phe-Leu-PyrS2-3Thi-BztA-Gln-NH2] | 7100 nM | 7 nM | – | – | –
CC(=O)N1CCC[C@]12CC=CCCCC1(CCCC=CCCCOC(=O)N3CC[C@@](C(=O)N[C@@H](Cc4ccsc4)C(=O)N[C@@H](Cc4csc5ccccc45)C(=O)N[C@@H](CCC(N)=O)C(N)=O)(C3)NC(=O)[C@H](CC(C)C)NC(=O)[C@H](Cc3ccccc3)NC(=O)[C@H](C)NC(=O)[C@H](C)NC(=O)[C@H](Cc3c[nH]c4ccccc34)NC(=O)[C@H](CC(=O)O)NC1=O)NC(=O)[C@H](CC(C)(C)C)NC(=O)[C@H](CC(=O)O)NC2=O (stereo partly drawn) [I-1439, Ac-PL3-Asp-Npg-B5-Asp-Trp-Ala-Ala-Phe-Leu-PyrS2-3Thi-BztA-Gln-NH2] | > 20000 nM | 349 nM | – | – | –
CC(=O)N1CCC[C@]12CC=CCCCC1(CCCC=CCCCOC(=O)N3CC[C@@](C(=O)N[C@@H](Cc4ccsc4)C(=O)N[C@@H](Cc4csc5ccccc45)C(=O)N[C@@H](CCC(N)=O)C(N)=O)(C3)NC(=O)[C@H](CC(C)C)NC(=O)[C@H](Cc3ccccc3)NC(=O)[C@H](C)NC(=O)[C@H](C)NC(=O)[C@H](CCC(N)=O)NC(=O)[C@H](CC(=O)O)NC1=O)NC(=O)[C@H](CC(C)(C)C)NC(=O)[C@H](CC(=O)O)NC2=O (stereo partly drawn) [I-1440, Ac-PL3-Asp-Npg-B5-Asp-Gln-Ala-Ala-Phe-Leu-PyrS2-3Thi-BztA-Gln-NH2] | 20700 nM | 26 nM | – | – | –
CC(=O)N1CCC[C@]12CC=CCCCC1(CCCC=CCCCOC(=O)N3CC[C@@](C(=O)N[C@@H](Cc4ccsc4)C(=O)N[C@@H](Cc4csc5ccccc45)C(=O)N[C@@H](CCC(N)=O)C(N)=O)(C3)NC(=O)[C@H](CC(C)C)NC(=O)[C@H](Cc3ccccc3)NC(=O)[C@H](C)NC(=O)[C@H](C)NC(=O)[C@H](CO)NC(=O)[C@H](CC(=O)O)NC1=O)NC(=O)[C@H](CC(C)(C)C)NC(=O)[C@H](CC(=O)O)NC2=O (stereo partly drawn) [I-1443, Ac-PL3-Asp-Npg-B5-Asp-Ser-Ala-Ala-Phe-Leu-PyrS2-3Thi-BztA-Gln-NH2] | 9500 nM | 24 nM | – | – | –

Now from value to compound, other results behind:

IC50 [1, 3] | IC50 [2, 4] | IC50 [2, 7] | SMILES | IC50 [1, 5] | IC50 [2, 6]
6000 nM | 33 nM | – | CCCC[C@@H]1NC(=O)[C@H](CC(=O)O)NC(=O)[C@]2(CC=CCCCC3(CCCC=CCCCOC(=O)N4CC[C@@](C(=O)N[C@@H](Cc5ccsc5)C(=O)N[C@@H](Cc5csc6ccccc56)C(=O)N[C@@H](CCC(N)=O)C(N)=O)(C4)NC(=O)[C@H](CCCC)NC(=O)[C@H](Cc4ccccc4)NC(=O)[C@H](C)NC(=O)[C@H](C)NC(=O)[C@H](Cc4cccc(C(=O)O)c4)NC(=O)[C@H](CC(=O)O)NC3=O)NC1=O)CCCN2C(C)=O (stereo partly drawn) [I-1408, Ac-PL3-Asp-nLeu-B5-Asp-3COOHF-Ala-Ala-Phe-nLeu-PyrS2-3Thi-BztA-Gln-NH2] | – | –
47100 nM | 109 nM | 109 nM | CCCC[C@@H]1NC(=O)[C@H](CC(=O)O)NC(=O)[C@]2(CC=CCCCC3(CCCC=CCCCOC(=O)N4CC[C@@](C(=O)N[C@@H](Cc5ccsc5)C(=O)N[C@@H](Cc5csc6ccccc56)C(=O)N[C@@H](CC(C)C)C(N)=O)(C4)NC(=O)[C@H](CC(C)C)NC(=O)[C@H](Cc4ccccc4)NC(=O)[C@H](C)NC(=O)[C@H](C)NC(=O)[C@H](CC(=O)O)NC(=O)[C@H](CC(=O)O)NC3=O)NC1=O)CCCN2C(C)=O (stereo partly drawn) [I-1411, Ac-PL3-Asp-nLeu-B5-Asp-Asp-Ala-Ala-Phe-Leu-PyrS2-3Thi-BztA-Leu-NH2] | – | –
> 20000 nM | 79 nM | 79 nM | CCCC[C@@H]1NC(=O)[C@H](CC(=O)O)NC(=O)[C@]2(CC=CCCCC3(CCCC=CCCCOC(=O)N4CC[C@@](C(=O)N[C@@H](Cc5ccsc5)C(=O)N[C@@H](Cc5csc6ccccc56)C(=O)N[C@@H](CC(C)C)C(N)=O)(C4)NC(=O)[C@H](CC(C)C)NC(=O)[C@H](Cc4ccccc4)NC(=O)[C@H](C)NC(=O)[C@H](C)NC(=O)[C@H](CC(=O)O)NC(=O)[C@H](CC(=O)O)NC3=O)NC1=O)CCCN2C(C)=O (stereo partly drawn) [I-1412, Ac-PL3-Asp-nLeu-B5-Asp-Asp-Ala-Ala-Phe-Leu-PyrS2-3Thi-BztA-Leu-NH2] | – | –
14500 nM | 27 nM | – | CC(=O)N1CCC[C@]12CC=CCCCC1(CCCC=CCCCOC(=O)N3CC[C@@](C(=O)N[C@@H](Cc4ccsc4)C(=O)N[C@@H](Cc4c[nH]c5ccccc45)C(=O)N[C@@H](CO)C(N)=O)(C3)NC(=O)[C@H](CC(C)C)NC(=O)[C@H](Cc3ccccc3)NC(=O)[C@H](C)NC(=O)[C@H](C)NC(=O)[C@H](CC(=O)O)NC(=O)[C@H](CC(=O)O)NC1=O)NC(=O)[C@H](CC(C)(C)C)NC(=O)[C@H](CC(=O)O)NC2=O (stereo partly drawn) [I-1432, Ac-PL3-Asp-Npg-B5-Asp-Asp-Ala-Ala-Phe-Leu-PyrS2-3Thi-Trp-Ser-NH2] | – | –
7400 nM | 5 nM | – | CC(=O)N1CCC[C@]12CC=CCCCC1(CCCC=CCCCOC(=O)N3CC[C@@](C(=O)N[C@@H](Cc4ccsc4)C(=O)N[C@@H](Cc4csc5ccccc45)C(=O)N[C@@H](CCC(N)=O)C(N)=O)(C3)NC(=O)[C@H](CC(C)C)NC(=O)[C@H](Cc3ccccc3)NC(=O)[C@H](C)NC(=O)[C@H](C)NC(=O)[C@H](CCCC(=O)O)NC(=O)[C@H](CC(=O)O)NC1=O)NC(=O)[C@H](CC(C)(C)C)NC(=O)[C@H](CC(=O)O)NC2=O (stereo partly drawn) [I-1438, Ac-PL3-Asp-Npg-B5-Asp-Aad-Ala-Ala-Phe-Leu-PyrS2-3Thi-BztA-Gln-NH2] | – | –

Source: patent publication US20240116985A1, “STAPLED PEPTIDES AND METHODS THEREOF” (priority 2020, published 2024)
